The results in this text go back to patent publication US20100112055A1, “MICROPOROUS FILM AND PREPARATION AND USE THEREOF” (NATIONAL TAIWAN UNIVERSITY, priority 2008, published 2010).

The nature of the data set: Pharmacokinetic study in vivo, plasma theophylline by HPLC. The note with it: male, rabbit, rabbits, intravenous injection, n = 5. Here is the method:
The male rabbits were used as an animal model in this invention. Each rabbit was intravenous injection of theophylline solution, orally administered an uncoated theophylline core tablet (TH-Lac) and a coated micropore-controlled release tablet (TH-Lac-A50), respectively. Blood samples were collected at specific time points, and the plasma concentrations of theophylline were analyzed by high-performance liquid chromatography equipped with a reverse-phase column (Hypersil BDS C18, 250×4.6 mm, 5 μm) and a UV spectrophotometer at a wavelength of 272 nm (Shimadzu SPD-6AV). The mobile phase constituted by acetonitrile and 0.2 M acetate buffer solution (pH 4.5) in the ratio of 6.5:93.5% v/v was applied at a flow rate of 1.0 mL/min.

As a reminder, the AUC(0-inf) is the area under the concentration-time curve extrapolated to infinity. A low value points to less exposure. In general, Cmax refers to the highest concentration seen after dosing. One may read the MRT as the average time that molecules of a dose stay in the body. Broadly, the Tmax is the time at which the peak concentration occurs. Regarding `Cn1c(=O)c2[nH]cnc2n(C)c1=O` [IV-TH, theophylline], the AUC(0-inf) is 117 ± 25.9 µg·h/mL, the Cmax came out at 21200 ± 1990 ng/mL, the mean residence time MRT came to 7.7 ± 1.16 h and the Tmax came to 0.25 h.
